The values that follow come from patent US12053545B2, “Transdermal solvent system and methods of use” (Donaghys Limited, priority 2019, dated 2024).

The series can be described thus: Stability of dual anthelmintic solvent system, accelerated aging at 40° C. for 12 months. In kind it is physicochemical. The note with it: for Concentration after 6 months / Concentration after 12 months: active in solvent system of Example 4, 40° C. accelerated aging; for Initial concentration: active in solvent system of Example 4, initial.

As to `c1ccc([C@H]2CN3CCSC3=N2)cc1` [Levamisole], the “Concentration after 6 months” value came out at 25450 µg/mL, the “Concentration after 12 months” value was 24100 µg/mL and the Initial concentration turned out to be 27.15 g/L.
The like results for Eprinomectin were, in that order, 15800 µg/mL, 14600 µg/mL and 16.5 g/L.
